Earlier results in paper PMC5983471 (PLoS ONE, 2018).
Read-outs that look alike come from different tables or passages of the source.

Columns and labels:
[1] = set-up: method as in FDA prescribing information; conditions: ref FDA prescribing information, cited from earlier work
[2] = tested on: plasma proteins, primarily albumin; set-up: method as in FDA prescribing information; conditions: ref FDA prescribing information; cited from earlier work
[3] = set-up: method as in FDA prescribing information; conditions: single oral 14C-enzalutamide 160 mg; ref FDA prescribing information; cited from earlier work
[4] = set-up: method as in FDA prescribing information; conditions: healthy volunteers; ref FDA prescribing information; cited from earlier work
[5] = tested on: castration-resistant prostate cancer; conditions: ref 59 (S1 Protocol), cited from earlier work
human CYP2C8 and CYP3A4 = tested on: human CYP2C8 and CYP3A4; set-up: method as in FDA prescribing information; conditions: in vitro; ref FDA prescribing information; cited from earlier work
CYP3A4 [6] = tested on: CYP3A4; set-up: method as in FDA prescribing information; conditions: ref FDA prescribing information, cited from earlier work
CYP2C9 = tested on: CYP2C9; set-up: method as in FDA prescribing information; conditions: ref FDA prescribing information, cited from earlier work
CYP2C19 = tested on: CYP2C19; set-up: method as in FDA prescribing information; conditions: ref FDA prescribing information, cited from earlier work
CYP3A4 [7] = tested on: CYP3A4; set-up: method as in FDA prescribing information; conditions: healthy volunteers; ref FDA prescribing information; cited from earlier work
CRPC [8] = conditions: cited from earlier work
CYP2C8 = tested on: CYP2C8; set-up: method as in FDA prescribing information; conditions: healthy volunteers; ref FDA prescribing information; cited from earlier work
[9] = ref FDA prescribing information; cited from earlier work
CRPC [10] = conditions: cited from earlier work; remark: listed apart in the source
[11] = AFFIRM, Enzalutamide (N=800), ref Scher et al, 2012
[12] = PREVAIL, Enzalutamide (N=871), ref Beer et al, 2014

SMILES: CC1(C)C(=O)N(c2ccc(C#N)c(C(F)(F)F)c2)C(=S)N1c1ccc(C(N)=O)c(F)c1 [N-desmethyl enzalutamide]
- plasma mean Cmax at steady state ([1]; 160 mg daily oral): 12700 ng/mL
- plasma mean predose trough at steady state ([1]; 160 mg daily oral): 13.0 µg/mL
- bound to plasma proteins [2]: 95%
- % of dose recovered in feces as this species [3]: 1%
- effect of a high-fat meal on AUC [4]: did not alter

SMILES: CNC(=O)c1ccc(N2C(=S)N(c3ccc(C#N)c(C(F)(F)F)c3)C(=O)C2(C)C)cc1F [enzalutamide, 4-(3-[4-cyano-3-(trifluoromethyl)phenyl]-5,5dimethyl-4-oxo-2-sulfanylideneimidazolidin-1-yl)-2-fluoro-N-methylbenzamide]
- PSA response rate (≥50% PSA declines) ([5]; 30 mg to 600 mg by mouth daily, 78 out of 140 subjects): 56%
- patients who discontinued treatment for an AE ([5]; daily dose ≤240 mg): 1/87
- patients who discontinued treatment for an AE ([5]; doses ≥360 mg): 7/53
- grade 3-4 AE: anemia ([5]; overall): 3%
- grade 3-4 AE: arthralgia ([5]; overall): 2%
- grade 3-4 AE: asthenia ([5]; overall): 2%
- grade 3-4 AE: fatigue ([5]; overall): 11%
- grade 3-4 AE: seizures ([5]; overall): 2%
- mild (grade 2) AE: anorexia ([5]; overall): 5.7%
- mild (grade 2) AE: back pain ([5]; overall): 5.7%
- mild (grade 2) AE: dyspnea ([5]; overall): 7.9%
- mild (grade 2) AE: fatigue ([5]; overall): 27.1%
- mild (grade 2) AE: nausea ([5]; overall): 8.6%
- maximum tolerated dose [5]: 240 mg daily
- plasma mean Cmax at steady state ([1]; 160 mg daily oral): 16600 ng/mL
- mean apparent volume of distribution (V/F) ([1]; single oral dose, patients, 29% CV): 110 L
- mean apparent clearance (CL/F) ([1]; single oral dose, patients): 0.56 L/h
- enzymes responsible for the metabolism (human CYP2C8 and CYP3A4): CYP2C8 and CYP3A4
- effect on plasma exposure to midazolam (CYP3A4 substrate) (CYP3A4 [6]; at steady state): reduced
- CYP3A4 inducer strength (CYP3A4 [6]; in humans): strong
- effect on plasma exposure to warfarin (CYP2C9 substrate) (CYP2C9; at steady state): reduced
- CYP2C9 inducer strength (CYP2C9; in humans): moderate
- effect on plasma exposure to omeprazole (CYP2C19 substrate) (CYP2C19; at steady state): reduced
- CYP2C19 inducer strength (CYP2C19; in humans): moderate
- increase of composite AUC of enzalutamide plus N-desmethyl enzalutamide by itraconazole (CYP3A4 [7]): 1.3 fold
- HR for death vs placebo (CRPC [8]; 95% CI 0.53 to 0.75, P<0.001, ref 4 (S1 Protocol)): 0.63
- Abnormal liver function testing, Grade 3-4 (%) (CRPC [8]; [11]): 0.4%
- Arthralgias / musculoskeletal pain, Grade 3-4 (%) (CRPC [8]; [11]): 1%
- Diarrhea, Grade 3-4 (%) (CRPC [8]; [11]): 1%
- Fatigue, Grade 3-4 (%) (CRPC [8]; [11]): 6%
- Headache, Grade 3-4 (%) (CRPC [8]; [11]): 0.8%
- Hot flashes, Grade 3-4 (%) (CRPC [8]; [11]): 0%
- Seizure, Grade 3-4 (%) (CRPC [8]; [11]): 0.6%
- median OS (CRPC [8]; enzalutamide 160 mg daily (N=800), ref 4 (S1 Protocol)): 18.4 months
- rate of grade 3 or higher AEs (CRPC [8]; enzalutamide 160 mg daily, ref 4 (S1 Protocol)): 45.3%
- effect of gemfibrozil on composite AUC of enzalutamide plus N-desmethyl enzalutamide (CYP2C8): increased
- solubility in water [9]: practically insoluble
- HR for death vs placebo (CRPC [10]; 95% CI 0.60 to 0.84, P<0.0001, ref 1 (S1 Protocol)): 0.706
- Abnormal liver function testing, Grade 3-4 (%) (CRPC [10]; [12]): 0.2%
- Arthralgias / musculoskeletal pain, Grade 3-4 (%) (CRPC [10]; [12]): 1.4%
- Back pain, Grade 3-4 (%) (CRPC [10]; [12]): 2.5%
- Constipation, Grade 3-4 (%) (CRPC [10]; [12]): 0.5%
- Fatigue, Grade 3-4 (%) (CRPC [10]; [12]): 1.8%
- Hypertension, Grade 3-4 (%) (CRPC [10]; [12]): 6.8%
- Seizure, Grade 3-4 (%) (CRPC [10]; [12]): 0%
- median OS (CRPC [10]; enzalutamide 160 mg daily (N=871), ref 1 (S1 Protocol)): 32.4 months
- effect of a high-fat meal on AUC [4]: did not alter
